What was measured:
Norwalk virus replicon [1] = experiment: Replicon clearance from HGT-NV cells over 12 days without G418 (qRT-PCR); format: cell-based, Human norovirus (HuNoV) GI; conditions: 12 days posttreatment, no G418
Experimental: To confirm the previously reported inhibitory effects of rupintrivir on human norovirus replication ([10]), we generated a human gastric adenocarcinoma cell line, HGT-NV, which stably maintained a Norwalk virus replicon encoding the neomycin resistance gene in place of the major capsid protein. The effects of rupintrivir on norovirus RNA replication in the replicon cells were evaluated by quantitative reverse transcription-PCR (qRT-PCR). […] To determine the concentration of rupintrivir sufficient to completely eliminate the norovirus replicon from HGT-NV cells, we treated the replicon cells with 2.5, 5, and 10 μM rupintrivir in the absence of G418 for up to 12 days. The replicon cells were passaged on days 3, 8, and 12, and the levels of replicon RNA were quantified by qRT-PCR. […] To further characterize the inhibitory effects of rupintrivir, we performed a colony formation assay with replicon cells treated with rupintrivir for 12 days. […]
(§1) The inhibitory effect of rupintrivir on HuNoV replication was assessed by quantification of the levels of GI NuNoV RNA and β-actin RNA as the reference gene. […] The real-time quantitative reverse transcription-PCR (qRT-PCR) assay was performed by using a One-Step Plus qRT-PCR kit according to the protocol of the manufacturer (Primer Design). […] Relative quantification was performed using the 2^−ΔΔCT threshold cycle (CT) method ([38]). […]

Norwalk virus replicon [2] = experiment: Susceptibility of HGT-NV replicon cells passaged in parallel in DMSO (qRT-PCR); format: cell-based, Human norovirus (HuNoV) GI
Experimental: Given the potent effects of rupintrivir on HGT-NV cells, we sought to determine whether rupintrivir-resistant replicons could be generated. To this end, HGT-NV cells were treated with 5 μM rupintrivir for 12 days in the absence of G418 selection, followed by subsequent passages in the presence of G418 with increasing concentrations of rupintrivir for up to 45 days (Fig. 1D). This approach yielded three lineages of replicon cells which were resistant to 10, 15, and 20 μM rupintrivir. To identify the mutations conferring the resistance to rupintrivir, we isolated cell clones by limiting dilution using replicon cells surviving after 45 days of culture and then evaluated the rupintrivir sensitivity of the replicon cells. […] All clones treated with 10 μM rupintrivir had the I109V single amino acid substitution, while the A105V/I109V double amino acid substitution was observed only in clones treated with 15 and 20 μM rupintrivir. […]
as §1

[3] = molecular target: T1, GI A105V/I109V mutant protease (Norovirus, UniProt Q83883, A1205V/I1209V); experiment: Cell-based FRET assay, GI A105V/I109V protease; design: species or system norovirus GI.1 (M87661)
T1 construct: plasmids expressing norovirus protease from GI.1 (M87661); expressed in transfected cells; host or cells: HEK293T
Description: (§2) The generation of plasmids expressing norovirus protease from GI.1 (M87661), GII.4 (DQ658413), or GV (DQ285629) norovirus and FRET assay constructs has been described previously ([18]). The plasmids carrying GI, GII, and GV proteases with the A105V, I109V, or A105V/I109V mutation were generated from the wild-type (WT) protease constructs described above by the QuikChange site-directed mutagenesis method. Mutant MNV genomes for reverse genetics were generated by two-step PCR mutagenesis of the WT MNV genome (pT7 MNV 3RZ) construct as described previously ([27]). The primers used for generation of the plasmids are listed in Tables S1 and S2 in the supplemental material.
(§3) The YFP/CFP ratio was used to determine FRET efficiency, as described previously ([18], [40]). Briefly, HEK293T cells were plated into black 96-well cell culture microplates (Greiner Bio-One) at a density of 5 × 10^4 cells/well in 100 μl of DMEM containing 10% fetal bovine serum with or without various concentrations of rupintrivir and then incubated for 4 h in a CO2 incubator at 37°C. […] The plates were then analyzed on a SpectraMax i3 instrument in fluorescence mode, with excitation set at 434 nm and the reading emissions set at 477 nm (CFP) and 527 nm (YFP). The background fluorescence from wells transfected with pcDNA3.1 was determined and subtracted. […]

GII protease = experiment: Cell-based FRET assay, GII WT protease; design: species or system norovirus GII.4 (DQ658413); conditions: compared with GI and GV WT proteases, HEK293T cells
Description: as §2, §3

HRV2 N165T = test system: HRV2 N165T; design: method as in PMID 17908951; conditions: serial passage of HRV2 for 62 days; cited from earlier work
[4] = test system: HRV2 N165T/E3G or N165T/A103V; design: method as in PMID 17908951; conditions: serial passage of HRV2 for 62 days; cited from earlier work

T1 sequence (Q83883 1101-1281 A1205V/I1209V): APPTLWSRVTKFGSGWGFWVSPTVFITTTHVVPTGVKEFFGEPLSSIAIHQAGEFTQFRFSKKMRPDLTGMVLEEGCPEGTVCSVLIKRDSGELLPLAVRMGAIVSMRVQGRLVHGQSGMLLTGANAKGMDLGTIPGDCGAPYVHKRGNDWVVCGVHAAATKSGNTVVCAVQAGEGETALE

SMILES: CCOC(=O)/C=C/[C@H](C[C@@H]1CCNC1=O)NC(=O)[C@@H](CC(=O)[C@@H](NC(=O)c1cc(C)on1)C(C)C)Cc1ccc(F)cc1 [rupintrivir, Rupintrivir]
- level of replicon RNA (Norwalk virus replicon [1]; 5 μM): below the limit of quantification
- level of replicon RNA (Norwalk virus replicon [1]; 10 μM): below the limit of quantification
- Fold change in sensitivity (Norwalk virus replicon [2]; DMSO-passaged cells, relative to DMSO): 1.0
- EC50 (Norwalk virus replicon [2]; Norwalk virus, read-out: Mean EC50 ± SD): 1.3 ± 0.2 µM
- IC50 ([3]; HEK293T cells, GI NS1/2-NS3 FRET substrate): 6.6 ± 1.2 µM
- fold increase in IC50 ([3]; vs GI WT protease): 5.1 fold
- susceptibility of the protease to rupintrivir (GII protease): substantially lower
- fold reduced susceptibility (HRV2 N165T): 2 fold
- fold reduced susceptibility [4]: 5 fold

Source: PMC5923142, “Selection and Characterization of Rupintrivir-Resistant Norwalk Virus Replicon Cells In Vitro” (Antimicrobial Agents and Chemotherapy, 2018)
